Assay results from patent publication US20260035384A1, “COMPOUND CONTAINING CYCLOHEXYL” (CHIA TAI TIANQING PHARMACEUTICAL GROUP CO., LTD., priority 2022, published 2026).
Positions count from the first letter of the chain named.

How the values were obtained:
[1] = In vitro stability in liver microsome; type: in vitro ADME; settings: human liver microsome 0.5 mg/mL, NADPH, 37° C.
Experimental: Liver microsome incubation samples (species: human, monkey, rat, and mouse) were prepared by mixing a PBS buffer (pH=7.4), a liver microsome solution (0.5 mg/mL), a test compound, and an NADPH+MgCl2 solution and incubated at 37° C. and 300 rpm for 1 h. Zero-hour samples were prepared by mixing a PBS buffer (pH=7.4), a liver microsome solution (0.5 mg/mL), and a test compound. An acetonitrile solution containing an internal standard was added to the samples, and supernatants were prepared by protein precipitation, diluted, and then assayed by LC/MS/MS.

[2] = biological target: T1, AR in VCaP cells (Homo sapiens, UniProt P10275); assay: Assay on degradation activity for AR in VCaP cells (HTRF human androgen receptor detection kit); type: cell-based; settings: 24 h incubation
T1 construct: Assay on Degradation Activity for AR in VCaP Cells; endogenous in cells; host or cells: VCaP cells
T1 sequence (P10275 1-920): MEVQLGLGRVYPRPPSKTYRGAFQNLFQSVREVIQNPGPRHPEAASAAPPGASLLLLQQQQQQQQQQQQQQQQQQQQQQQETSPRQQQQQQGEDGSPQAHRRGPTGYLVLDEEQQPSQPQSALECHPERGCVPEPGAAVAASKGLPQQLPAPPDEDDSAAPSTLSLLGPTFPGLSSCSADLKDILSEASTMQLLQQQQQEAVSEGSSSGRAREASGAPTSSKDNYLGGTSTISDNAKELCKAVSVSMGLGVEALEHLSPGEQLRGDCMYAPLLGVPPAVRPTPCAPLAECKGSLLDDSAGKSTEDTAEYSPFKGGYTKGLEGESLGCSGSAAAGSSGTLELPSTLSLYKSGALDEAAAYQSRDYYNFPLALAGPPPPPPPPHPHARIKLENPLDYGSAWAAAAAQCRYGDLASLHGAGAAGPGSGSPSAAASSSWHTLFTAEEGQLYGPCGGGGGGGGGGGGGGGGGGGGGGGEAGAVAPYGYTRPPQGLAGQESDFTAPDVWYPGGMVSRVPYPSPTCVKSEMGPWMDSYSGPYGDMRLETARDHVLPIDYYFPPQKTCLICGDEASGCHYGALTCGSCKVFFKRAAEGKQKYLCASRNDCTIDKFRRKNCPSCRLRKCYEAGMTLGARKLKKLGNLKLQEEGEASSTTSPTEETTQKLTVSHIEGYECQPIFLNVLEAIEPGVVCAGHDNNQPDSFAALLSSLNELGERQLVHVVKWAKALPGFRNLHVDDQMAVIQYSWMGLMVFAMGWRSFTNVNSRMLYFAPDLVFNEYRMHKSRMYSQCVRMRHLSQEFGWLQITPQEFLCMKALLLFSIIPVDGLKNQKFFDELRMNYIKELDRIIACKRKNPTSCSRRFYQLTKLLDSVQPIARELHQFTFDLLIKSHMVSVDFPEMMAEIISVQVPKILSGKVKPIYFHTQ
How it was run: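 VCaP cells seeded overnight in 2% CSS-FBS phenol red-free DMEM, then treated 24 h with compound at 1000 nM–0.977 nM final, in duplicate. Lysates probed with AR Eu cryptate/d2 antibody HTRF (2 h, 25° C., 665/620 nm); DC50 and Dmax from four-parameter dose-response fits.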

[3] = Mouse pharmacokinetics; type: in vivo, ICR mice
Experimental: ICR mice weighing 18-22 g were randomized into groups of 9 after 3-5 days of acclimatization, and then intragastrically given the test compound solution at a dose of 10 mg/kg and intravenously injected with the test compound solution at a dose of 1 mg/kg.
Blood sampling time points for the intragastrical administration group were 15 min, 0.5 h, 1 h, 2 h, 3 h, 4 h, 6 h, 8 h, 10 h, and 24 h, and blood sampling time points for the intravenous injection administration group were […], 15 min, 0.5 h, 1 h, 2 h, 4 h, 6 h, 8 h, 10 h, and 24 h; blood was collected from the orbit to prepare plasma samples to be tested. 30 μL of each of the plasma samples to be tested and a standard curve sample were taken, and an acetonitrile solution containing an internal standard was added. Supernatants were obtained by protein precipitation, diluted, and then assayed by LC/MS/MS. Pharmacokinetic parameters were fitted using a non-compartmental model (see Table 6).

[4] = system: VCaP cells; assay: Assay on inhibitory activity for VCaP cell proliferation (CCK-8); type: cell-based; settings: 168 h incubation
How it was run: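 VCaP cells seeded at 1×10^5 cells/mL in phenol red-free DMEM with 5% charcoal-stripped FBS, treated in duplicate at 10000–0.61 nM final. After 168 h incubation, viability was read with CCK-8.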

[5] = system: LNCaP cells; assay: Assay on inhibitory activity for LNCaP cell proliferation (CCK-8); type: cell-based; settings: 168 h incubation
How it was run: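 Cells seeded at 1×10^5 cells/mL in phenol red-free 1640 with 2% CSS-FBS, treated at final 10000 nM-0.61 nM in duplicate. After 168 h incubation, viability read with CCK-8.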

[6] = biological target: T2, AR in LNCaP cells (Homo sapiens, UniProt P10275, T878A); assay: Assay on degradation activity for AR in LNCaP cells (HTRF human androgen receptor detection kit); type: cell-based; settings: 24 h incubation
T2 construct: Assay on Degradation Activity for AR in LNCaP Cells; endogenous in cells; host or cells: LNCaP cells
T2 sequence (P10275 1-920 T878A): T1 sequence (P10275 1-920) with T878A
How it was run: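 LNCaP cells seeded in 2% CSS-FBS phenol red-free 1640 medium overnight, then treated in duplicate with 500 nM–0.488 nM compound for 24 h. AR in lysates quantified by HTRF (Eu cryptate/d2 antibodies, 2 h, 25 °C, 665/620 nm); DC50 and Dmax from four-parameter fits.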

| SMILES | Human liver microsome Residuals at 60 min (%) [1] [%] | DC50 [2] [nM] | AUC ([3]; Mouse i.g. 10 mpk) [ng·h/mL] | Cmax ([3]; Mouse i.g. 10 mpk) [ng/mL] | t1/2 ([3]; Mouse i.g. 10 mpk) [h] | F(%) ([3]; Mouse i.g. 10 mpk vs i.v. 1 mpk) | AUC ([3]; Mouse i.v. 1 mpk, 1 mg/kg) [ng·h/mL] | Cl ([3]; Mouse i.v. 1 mpk, 1 mg/kg) [mL/min/kg] | t1/2 ([3]; Mouse i.v. 1 mpk, 1 mg/kg) [h] | IC50 [4] [nM] | IC50 [5] [nM] | DC50 ([6]; HTRF) [nM] | Dmax ([6]; maximum degradation rate) [%] | IC50 ([4]; Homo sapiens) [nM] |
| --- | --- | --- | --- | --- | --- | --- | --- | --- | --- | --- | --- | --- | --- | --- |
| N#Cc1ccc(O[C@H]2CC[C@H](NC(=O)c3ccc(N4CCN(CC5Cc6ccc7c(C8CCC(=O)NC8=O)noc7c6C5)CC4)nn3)CC2)cc1Cl (stereo partly shown) [Compound 27] | >85 | ≤ 1 | 20072 | 1503 | 5.47 | 35.85 | 5599 | 2.63 | 7.6 | < 100 | < 1000 | – | – | – |
| N#Cc1ccc(O[C@H]2CC[C@H](NC(=O)c3ccc(N4CCC(N5CC(CN6Cc7ccc8c(C9CCC(=O)NC9=O)noc8c7C6)C5)CC4)nn3)CC2)cc1Cl (stereo partly shown) [Compound 90] | >85 | ≤ 1 | – | – | – | – | – | – | – | – | – | ≤ 20 | > 80 | < 10 |
